Activity calls are given as the source filed them.

Test [1] concerns the target T1, Heat shock factor protein 1 (Mus musculus, UniProt P38532).
T1 sequence (P38532 whole entry): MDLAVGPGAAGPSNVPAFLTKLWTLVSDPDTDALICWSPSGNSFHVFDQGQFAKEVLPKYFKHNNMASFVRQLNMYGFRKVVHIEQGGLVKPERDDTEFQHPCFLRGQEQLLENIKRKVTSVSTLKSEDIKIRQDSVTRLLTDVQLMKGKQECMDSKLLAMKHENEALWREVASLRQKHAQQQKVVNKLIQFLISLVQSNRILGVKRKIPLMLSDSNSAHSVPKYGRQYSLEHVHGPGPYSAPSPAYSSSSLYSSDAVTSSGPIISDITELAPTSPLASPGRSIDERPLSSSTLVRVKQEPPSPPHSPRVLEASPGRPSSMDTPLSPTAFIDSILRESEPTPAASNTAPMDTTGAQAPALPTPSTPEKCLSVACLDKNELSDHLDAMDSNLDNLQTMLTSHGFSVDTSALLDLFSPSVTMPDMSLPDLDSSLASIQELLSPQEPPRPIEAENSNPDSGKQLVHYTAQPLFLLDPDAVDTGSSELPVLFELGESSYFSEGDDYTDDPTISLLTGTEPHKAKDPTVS
The test is described as follows: enhancement of HSF1-driven luciferase signal – cell-based, NIH3T3, luminescence, dose retest, confirmation (AID 435004).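 Further: stress induced by proteasome inhibitor MG132 added 30 min after compound; luciferase reporter driven by HSF1 response element in NIH3T3 cells; actives raise luminescence as potentiators of the MG132 stress response.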 The test is classed as functional.

For test [2], the target named is T2, DNA repair and recombination protein RAD54-like (Homo sapiens, UniProt Q92698).
T2 sequence (Q92698 whole entry): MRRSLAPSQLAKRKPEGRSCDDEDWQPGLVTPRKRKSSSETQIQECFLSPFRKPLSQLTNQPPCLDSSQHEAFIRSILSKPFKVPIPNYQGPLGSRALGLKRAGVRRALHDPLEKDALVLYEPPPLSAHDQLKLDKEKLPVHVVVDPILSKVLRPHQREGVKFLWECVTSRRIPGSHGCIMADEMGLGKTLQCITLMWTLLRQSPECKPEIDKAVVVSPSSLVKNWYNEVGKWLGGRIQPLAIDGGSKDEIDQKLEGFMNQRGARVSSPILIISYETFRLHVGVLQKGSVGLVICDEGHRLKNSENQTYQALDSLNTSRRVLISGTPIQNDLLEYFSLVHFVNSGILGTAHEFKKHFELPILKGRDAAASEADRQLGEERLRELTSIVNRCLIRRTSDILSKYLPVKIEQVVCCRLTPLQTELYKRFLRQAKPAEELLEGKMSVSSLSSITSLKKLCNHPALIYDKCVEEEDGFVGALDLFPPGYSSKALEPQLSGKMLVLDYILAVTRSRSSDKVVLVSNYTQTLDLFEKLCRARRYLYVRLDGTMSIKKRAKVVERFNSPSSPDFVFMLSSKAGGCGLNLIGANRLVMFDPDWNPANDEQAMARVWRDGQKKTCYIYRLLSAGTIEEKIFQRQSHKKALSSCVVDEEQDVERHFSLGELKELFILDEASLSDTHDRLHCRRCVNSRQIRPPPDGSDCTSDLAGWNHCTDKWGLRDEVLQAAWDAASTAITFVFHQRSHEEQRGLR
The test is described as follows: RAD54 Holliday junction migration blockers – biochemical, fluorescence, cherry-picked samples, dose series, confirmation (AID 651657). The test is classed as functional.

The target of test [3] is T3, Polyadenylate-binding protein 1 (Homo sapiens, UniProt P11940). The test is described as follows: MLLE binding blockers, Cy5 peptide tracer – biochemical, fluorescence polarization, Cy5-PAM2 peptide, secondary, miRNA deadenylation inhibitor project, dose response (AID 602260). The test is classed as functional. As to conditions: read-out: IC50_Mean. (In general: In fluorescence polarisation assays a small probe gives low polarisation when free and higher when bound to something large.)

For test [4], the target named is T3, Polyadenylate-binding protein 1. The test is described as follows: MLLE domain peptide-binding blockers, IC50 – biochemical, fluorescence polarization, FITC-PAM2 peptide, dose response (AID 602259). The class given is functional. As to conditions: read-out: IC50_Mean.
The nature of test [5]: Luminescence Cell-Based Dose Retest to Confirm Inhibitors of Cancer Stem Cells. [Related pubchem assays (depositor defined):AID2717, AID2721]. The test is classed as functional. Particulars: Homo sapiens.
The target of test [6] is T4, Short transient receptor potential channel 4 (Mus musculus, UniProt Q9QUQ5).
T4 sequence (Q9QUQ5 whole entry): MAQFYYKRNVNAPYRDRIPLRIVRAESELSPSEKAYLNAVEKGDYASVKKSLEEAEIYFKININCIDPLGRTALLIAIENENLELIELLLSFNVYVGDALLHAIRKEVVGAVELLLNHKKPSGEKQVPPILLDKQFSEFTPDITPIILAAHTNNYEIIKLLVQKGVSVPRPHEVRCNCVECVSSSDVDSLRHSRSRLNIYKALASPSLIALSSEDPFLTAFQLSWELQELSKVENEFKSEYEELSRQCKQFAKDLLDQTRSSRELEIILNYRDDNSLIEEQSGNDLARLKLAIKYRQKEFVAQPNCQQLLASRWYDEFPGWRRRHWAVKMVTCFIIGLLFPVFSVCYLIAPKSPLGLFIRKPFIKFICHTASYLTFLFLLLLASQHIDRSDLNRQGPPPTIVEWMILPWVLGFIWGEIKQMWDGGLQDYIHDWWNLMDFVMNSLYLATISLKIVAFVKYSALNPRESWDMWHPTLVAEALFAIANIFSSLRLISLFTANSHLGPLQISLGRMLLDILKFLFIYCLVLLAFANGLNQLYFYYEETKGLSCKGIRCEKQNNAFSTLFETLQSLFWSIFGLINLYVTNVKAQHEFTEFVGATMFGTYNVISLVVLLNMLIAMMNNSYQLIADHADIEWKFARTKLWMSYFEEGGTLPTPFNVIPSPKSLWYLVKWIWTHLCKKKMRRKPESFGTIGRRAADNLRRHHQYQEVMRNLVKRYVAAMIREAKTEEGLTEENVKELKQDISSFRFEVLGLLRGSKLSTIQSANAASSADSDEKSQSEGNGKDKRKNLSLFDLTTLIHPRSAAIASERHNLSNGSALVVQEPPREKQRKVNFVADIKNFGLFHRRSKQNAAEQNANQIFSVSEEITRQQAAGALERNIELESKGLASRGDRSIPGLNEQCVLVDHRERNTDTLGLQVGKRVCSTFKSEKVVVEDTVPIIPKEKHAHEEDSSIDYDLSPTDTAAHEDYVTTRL
The test is described as follows: block of DAMGO-driven TRPC4 calcium entry – cell-based, HEK293 TRPC4/mu-opioid, Fluo-4 calcium, dose response (AID 434942).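 Further: potency of inhibitors blocking the TRPC4 calcium response.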 The class given is functional.

Another test deals with Genome polyprotein (dengue virus type 2, UniProt P29990). The test is described as follows: flavivirus cap methylation enzyme inhibition – biochemical, confirmation dose response, primary screen (AID 588689). The class given is functional.
Test [7] concerns BJ. The test is described as follows: BJ-TERT fibroblast viability loss – cell-based, RAS-independent, luminescence, dose response (AID 1933). As to conditions: Homo sapiens. The test is classed as functional.
Test [8] has as its system BJ. The test is described as follows: cells. The test is classed as functional, cell-based. Particulars: Homo sapiens.
Test [9] has as its system BJ. The test is described as follows: BJ-TERT-LT-ST fibroblast viability loss – cell-based, RAS-independent, luminescence, dose response (AID 1935).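 Further: BJ fibroblasts immortalized with TERT plus LT and ST oncogenes.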 The test is classed as functional. As to conditions: Homo sapiens.
A short description of test [10]: DRD fibroblast viability loss – cell-based, non-viral oncogenic, luminescence, dose response (AID 1934). The class given is functional. Particulars: Homo sapiens.
Test [11] addresses T5, Replicative DNA helicase DnaB (Mycobacterium tuberculosis, UniProt P9WMR3).
T5 sequence (P9WMR3 whole entry): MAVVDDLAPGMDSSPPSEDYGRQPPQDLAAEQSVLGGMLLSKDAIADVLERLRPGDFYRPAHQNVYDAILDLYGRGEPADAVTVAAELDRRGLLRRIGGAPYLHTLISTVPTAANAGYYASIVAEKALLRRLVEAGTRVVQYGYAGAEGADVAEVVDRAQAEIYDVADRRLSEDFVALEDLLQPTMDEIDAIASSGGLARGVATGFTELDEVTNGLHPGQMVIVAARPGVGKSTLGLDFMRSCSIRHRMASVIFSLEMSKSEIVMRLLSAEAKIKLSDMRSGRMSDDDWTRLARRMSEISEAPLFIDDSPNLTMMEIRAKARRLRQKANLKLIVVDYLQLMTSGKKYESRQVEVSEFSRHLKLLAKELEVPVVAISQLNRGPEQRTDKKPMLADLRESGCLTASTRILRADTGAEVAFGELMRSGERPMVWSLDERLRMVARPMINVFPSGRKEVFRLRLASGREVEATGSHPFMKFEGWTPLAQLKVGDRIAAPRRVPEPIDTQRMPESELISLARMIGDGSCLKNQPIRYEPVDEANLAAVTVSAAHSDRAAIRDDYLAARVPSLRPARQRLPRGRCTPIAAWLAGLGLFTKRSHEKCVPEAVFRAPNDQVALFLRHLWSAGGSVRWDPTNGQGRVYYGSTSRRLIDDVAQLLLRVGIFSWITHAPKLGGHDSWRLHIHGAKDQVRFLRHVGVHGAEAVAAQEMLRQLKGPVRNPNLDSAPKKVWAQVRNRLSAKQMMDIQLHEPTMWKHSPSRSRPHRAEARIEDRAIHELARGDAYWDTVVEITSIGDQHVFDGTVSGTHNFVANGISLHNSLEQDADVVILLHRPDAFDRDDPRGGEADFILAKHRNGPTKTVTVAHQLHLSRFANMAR
The test is described as follows: DnaB intein splicing inhibitors, dose response, biochemical, cell-free fluorescence (AID 449749). The class given is functional.

The target in a further test is T6, Protein RecA (Mycobacterium tuberculosis, UniProt P9WHJ3).
T6 sequence (P9WHJ3 whole entry): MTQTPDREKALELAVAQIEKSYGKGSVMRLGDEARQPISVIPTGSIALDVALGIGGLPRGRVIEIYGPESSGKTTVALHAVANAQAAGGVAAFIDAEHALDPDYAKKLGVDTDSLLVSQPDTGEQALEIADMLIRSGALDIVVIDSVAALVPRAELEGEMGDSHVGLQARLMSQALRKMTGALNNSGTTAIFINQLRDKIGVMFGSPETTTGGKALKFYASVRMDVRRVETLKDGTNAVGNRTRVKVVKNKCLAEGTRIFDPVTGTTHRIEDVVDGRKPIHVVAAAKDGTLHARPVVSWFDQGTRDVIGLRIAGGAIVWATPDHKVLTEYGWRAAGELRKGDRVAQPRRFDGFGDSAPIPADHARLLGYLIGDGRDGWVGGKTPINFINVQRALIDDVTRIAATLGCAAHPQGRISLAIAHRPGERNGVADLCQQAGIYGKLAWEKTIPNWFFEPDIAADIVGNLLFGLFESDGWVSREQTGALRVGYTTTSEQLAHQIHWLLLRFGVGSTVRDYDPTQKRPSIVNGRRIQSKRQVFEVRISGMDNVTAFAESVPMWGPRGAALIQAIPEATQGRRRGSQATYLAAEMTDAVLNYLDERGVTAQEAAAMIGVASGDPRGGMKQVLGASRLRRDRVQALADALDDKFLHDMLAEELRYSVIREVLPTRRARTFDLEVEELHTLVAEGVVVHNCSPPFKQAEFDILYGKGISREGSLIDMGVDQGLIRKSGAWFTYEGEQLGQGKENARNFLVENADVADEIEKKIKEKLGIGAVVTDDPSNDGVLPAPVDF
The test is described as follows: Fluorescence Cell-Free Homogeneous Dose Retest to Identify Inhibitors of RecA-Intein Splicing Activity. [Related pubchem assays (depositor defined):AID2097, AID2223, AID489010, AID492950]. The test is classed as functional.

T3 sequence (P11940 whole entry): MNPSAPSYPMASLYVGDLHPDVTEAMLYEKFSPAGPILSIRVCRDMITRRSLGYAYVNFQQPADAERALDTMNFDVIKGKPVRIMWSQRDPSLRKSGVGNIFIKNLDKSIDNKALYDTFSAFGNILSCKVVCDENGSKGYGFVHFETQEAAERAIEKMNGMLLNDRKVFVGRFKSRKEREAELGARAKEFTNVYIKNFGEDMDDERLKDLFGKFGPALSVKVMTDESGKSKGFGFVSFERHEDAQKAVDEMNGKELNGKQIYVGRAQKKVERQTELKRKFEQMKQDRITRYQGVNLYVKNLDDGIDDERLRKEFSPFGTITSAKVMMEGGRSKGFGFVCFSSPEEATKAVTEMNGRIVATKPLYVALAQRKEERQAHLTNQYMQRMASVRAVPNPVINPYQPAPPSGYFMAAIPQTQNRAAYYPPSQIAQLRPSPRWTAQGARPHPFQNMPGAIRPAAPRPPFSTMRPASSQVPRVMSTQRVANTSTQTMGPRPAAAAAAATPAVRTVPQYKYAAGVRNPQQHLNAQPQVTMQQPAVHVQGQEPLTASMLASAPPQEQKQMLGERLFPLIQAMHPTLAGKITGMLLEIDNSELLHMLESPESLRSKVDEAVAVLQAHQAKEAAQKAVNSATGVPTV
Genome polyprotein, sequence (P29990 2492-3391 limits assumed): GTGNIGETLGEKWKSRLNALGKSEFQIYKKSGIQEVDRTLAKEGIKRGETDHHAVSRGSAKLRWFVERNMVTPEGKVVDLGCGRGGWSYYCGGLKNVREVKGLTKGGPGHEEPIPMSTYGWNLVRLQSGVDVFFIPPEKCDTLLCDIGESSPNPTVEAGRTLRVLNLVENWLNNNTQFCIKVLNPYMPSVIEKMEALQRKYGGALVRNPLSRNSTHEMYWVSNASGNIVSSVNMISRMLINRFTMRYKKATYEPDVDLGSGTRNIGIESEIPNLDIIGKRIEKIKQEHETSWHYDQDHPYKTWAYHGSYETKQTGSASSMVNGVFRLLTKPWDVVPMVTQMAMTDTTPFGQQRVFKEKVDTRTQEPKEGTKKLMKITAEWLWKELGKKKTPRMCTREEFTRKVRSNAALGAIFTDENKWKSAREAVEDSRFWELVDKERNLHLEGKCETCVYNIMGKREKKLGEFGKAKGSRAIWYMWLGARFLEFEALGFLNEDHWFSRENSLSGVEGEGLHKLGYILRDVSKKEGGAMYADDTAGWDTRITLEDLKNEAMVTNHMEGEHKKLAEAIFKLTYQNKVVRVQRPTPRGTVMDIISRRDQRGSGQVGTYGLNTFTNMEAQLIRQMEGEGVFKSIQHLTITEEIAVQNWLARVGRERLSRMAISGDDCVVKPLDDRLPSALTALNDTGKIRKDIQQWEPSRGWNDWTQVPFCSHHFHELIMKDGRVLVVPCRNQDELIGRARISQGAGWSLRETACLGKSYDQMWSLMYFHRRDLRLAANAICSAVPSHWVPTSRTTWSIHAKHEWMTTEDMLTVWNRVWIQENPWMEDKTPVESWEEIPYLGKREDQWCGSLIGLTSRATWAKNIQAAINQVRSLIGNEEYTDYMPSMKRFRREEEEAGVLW

By EC50 is commonly meant the midpoint of the concentration-response curve. A word on the AC50: it is the concentration at which the activity in the assay is half-maximal. For the compound `CCOC(=O)c1cnc2ccc(OC)cc2c1Nc1ccc(N2CCN(C)CC2)cc1`, in [1], the EC50 was > 260 µM (inactive). The AC50 in test [2] was 34 µM (active).

As to `CCOC(=O)c1cc(-c2ccc(OC)cc2)nc2c1c(C)nn2CCC(N)=S`, the IC50 in test [3] and in test [4] was > 66 µM (inactive) throughout.

For the compound `CCCn1nc([N+](=O)[O-])c(C(C#N)c2nc3ccccc3o2)c(Cl)c1=O` (stereo unspecified), the AC50 in test [5] was 4.55 µM (active). Besides, the EC50 in [6] is 6.68 µM (active); in test [1], > 260 µM (inactive). Further, the IC50 on Genome polyprotein is 34.7 µM (active).

Regarding `Brc1ccc(CN2C3=NCCCN3c3ccccc32)cc1`, the EC50 in [6] was 0.531 µM (active).

For the compound `O=C(NC1CCCC1)C(c1ccc(Cl)cc1)N(Cc1ccc(F)cc1)C(=O)CCl` (stereo unspecified), the half-maximal effective concentration (EC50) in the test with BJ [7] is 7.08 µM (inconclusive); with BJ [8], 16.4 µM (active); in the test with BJ [9], > 150 µM (inconclusive); in test [10], 10.5 µM (inconclusive); on Protein RecA, 1.07 µM (active). In [11], the AC50 is 1.16 µM (active).

Take `CCOc1ccc(Cn2c(SCCCCC#N)nc3c2c(=O)n(C)c(=O)n3C)cc1OCC`: the IC50 in test [3] and in [4] was > 66 µM (inactive) throughout.

Turning to `CCC(C)[C@H](NC(=O)C1CC(=O)N(c2ccc3c(c2)OCO3)C1)C(=O)NC1CCCCC1` (stereo partly specified), the IC50 is > 66 µM (inactive) in test [3] and 54.9 µM (inactive) in [4].

`Cc1c(O)c(CN(C)C)cc2c1oc(=O)c1ccccc12`: the concentration at half-maximal activity (AC50) in test [2] was 35.5 µM (active).

In the case of `CCn1cc(CN2CCCC(CO)(Cc3cccc(Cl)c3)C2)cn1` (stereo unspecified), the EC50 in [6] was 5.96 µM (active).

In the case of `Cc1ccc(C)c2nc3sc(C(=O)O)cc3cc12`, in test [6], the EC50 is 5.31 µM (active).

With `CCCCN(C)CCNC(=O)c1cc2cc3ccc(OC)cc3nc2o1`, the concentration at half-maximal activity (AC50) in test [2] is 50.9 µM (active).

Consider `Cc1ccc(C(=O)NC(=S)Nc2c(C)ccc3nsnc23)cc1`, for which the EC50 in [6] is 5.96 µM (active).

As for `CCC(O)C1CCN(Cc2cn(-c3ccc(OC)cc3)nc2-c2cccc(F)c2)CC1` (stereo unspecified), the half-maximal effective concentration (EC50) in [6] was 10.6 µM (active).

As for `O=C(NCCN1CCOCC1)c1ccc2c(c1)N(Cc1ccc(F)cc1)C(=O)CS2`, the half-maximal effective concentration (EC50) in test [6] is 4.73 µM (active).

These data come from ChEMBL document CHEMBL1201862, “PubChem BioAssay data set” (2004).
